The target in one experiment is T1, mesotrypsin (Homo sapiens, UniProt P35030).
T1 construct: purchased R&D systems
T1 sequence (P35030 1-304): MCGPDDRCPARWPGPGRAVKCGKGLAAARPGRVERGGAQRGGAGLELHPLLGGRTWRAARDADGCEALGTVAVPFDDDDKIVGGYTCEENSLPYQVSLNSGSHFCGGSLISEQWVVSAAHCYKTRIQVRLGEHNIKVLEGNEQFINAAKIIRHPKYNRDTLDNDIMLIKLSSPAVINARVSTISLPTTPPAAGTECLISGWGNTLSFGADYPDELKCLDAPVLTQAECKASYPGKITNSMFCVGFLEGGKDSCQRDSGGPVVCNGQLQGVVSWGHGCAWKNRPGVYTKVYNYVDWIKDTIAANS
Put plainly: Kinetic assay for the inhibition constant (Ki), mesotrypsin. In kind it is biochemical. The protocol: (§1) The inhibitory activities against these proteases were tested at a peptide concentration ranging from 0.1 μM to 100 μM.
(§2) (a) Bovine trypsin; (b) matriptase; (c) chymotrypsin; (d) mesotrypsin; (e) human proteasome 20s. The activity of each protease was assayed in the presence of each peptide ranging from 0.1 μM to 100 μM in PBS (pH 7.4) and the corresponding substrate: Z-Gly-Gly-Arg-NHMec (trypsin); Suc-Ala-Ala-Pro-Phe-NHMec (chymotrypsin); Boc-Gln-Ala-Arg-AMC (matriptase); Mca-Arg-Pro-Val-Glu-Nval-Trp-Arg-Lys(Dnp)-NH2 (mesotrypsin); Suc-Leu-Leu-Val-Tyr-AMC (human proteasome 20s).
(§3) Kinetic assays for the inhibition constant (Ki). […] Inhibitory activities against the proteases of the peptides were tested using previously published papers and manufacturers’ instructions from 0.1 μM to 100 μM in PBS (pH 7.4). Wells of a black microtiter plate were loaded with designed different concentrations of peptide solution. […] For the human proteasome 20s, florescent was read after 15 min pre-incubation. The fluorescent products’ formation rate was measured continuously at 37 °C in the kinetic model using a multi-detection microplate reader (BMG Labtech, Ortenberg, Germany). […] Assays were repeated individually three times, and the Ki was calculated by non-linear regression (Morrison equation) using GraphPad Prism.

In a further experiment the target is chymotrypsin (Bos taurus, UniProt P00766). Put plainly: biochemical. How it is done:
as §1, §2, §3

A further experiment deals with T2, human proteasome 20s (Homo sapiens, UniProt P28074).
T2 construct: purchased Biochem, Boston, MA, USA
Put plainly: Kinetic assay for the inhibition constant (Ki), 20s proteasome. It is filed as biochemical. The protocol:
as §1, §2, §3

In experiment [1] the test system is Escherichia coli (NCTC 10418). The protocol:
(§4) The antimicrobial activities of the five peptides were assessed by determining their minimal inhibitory concentrations (MICs) against three standard microorganisms, the Gram-positive bacterium Staphylococcus aureus (NCTC 10788) and the Gram-negative bacterium Escherichia coli (NCTC 10418), and the opportunistic pathogen yeast Candida albicans (NCPF 1467).
(§5) Minimal inhibitory concentration assay. Antimicrobial activities of the peptides were monitored by determining their minimal inhibitory concentrations (MICs) using three standard microorganisms, which were Gram-positive bacterium Staphylococcus aureus (NCTC 10788), Gram-negative bacterium Escherichia coli (NCTC 10418), and opportunistic pathogen yeast Candida albicans (NCPF 1467). The peptides were dissolved in physiological PBS, two-fold diluted to obtain a series of concentrations, and added into wells of 96-well microtiter plates. The respective concentrations of peptides and controls were incubated with microorganism cultures (5 × 10^5 colony-forming units/mL) for 18 h at 37 °C in a humidified atmosphere. Then, the growth of microorganisms was detected by measuring optical density at λ = 550 nm using an absorbance reader (BioTek Instruments, Winooski, VT, USA). MIC was defined as the minimum concentration of peptide at which no growth was detectable.

The subject of experiment [2] is Candida albicans (NCPF 1467). The protocol:
as §4, §5

The subject of experiment [3] is Staphylococcus aureus (NCTC 10788). How it is done: as §4, §5
A further experiment addresses T3, bovine trypsin (Bos taurus, UniProt P00760).
T3 construct: purchased Sigma-Aldrich
T3 sequence (P00760 24-246): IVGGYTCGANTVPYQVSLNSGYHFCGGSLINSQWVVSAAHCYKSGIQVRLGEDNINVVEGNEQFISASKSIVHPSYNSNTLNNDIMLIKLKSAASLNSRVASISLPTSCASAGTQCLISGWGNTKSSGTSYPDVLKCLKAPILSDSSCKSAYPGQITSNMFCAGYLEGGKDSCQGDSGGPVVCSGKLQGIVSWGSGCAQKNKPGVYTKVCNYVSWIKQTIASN
Put plainly: Kinetic assay for the inhibition constant (Ki), trypsin. It is filed as biochemical. The protocol:
as §1, §2, §3

The target of a further experiment is T4, human matriptase-1 (Homo sapiens, UniProt Q9Y5Y6).
T4 construct: purchased R&D systems
T4 sequence (Q9Y5Y6 1-855): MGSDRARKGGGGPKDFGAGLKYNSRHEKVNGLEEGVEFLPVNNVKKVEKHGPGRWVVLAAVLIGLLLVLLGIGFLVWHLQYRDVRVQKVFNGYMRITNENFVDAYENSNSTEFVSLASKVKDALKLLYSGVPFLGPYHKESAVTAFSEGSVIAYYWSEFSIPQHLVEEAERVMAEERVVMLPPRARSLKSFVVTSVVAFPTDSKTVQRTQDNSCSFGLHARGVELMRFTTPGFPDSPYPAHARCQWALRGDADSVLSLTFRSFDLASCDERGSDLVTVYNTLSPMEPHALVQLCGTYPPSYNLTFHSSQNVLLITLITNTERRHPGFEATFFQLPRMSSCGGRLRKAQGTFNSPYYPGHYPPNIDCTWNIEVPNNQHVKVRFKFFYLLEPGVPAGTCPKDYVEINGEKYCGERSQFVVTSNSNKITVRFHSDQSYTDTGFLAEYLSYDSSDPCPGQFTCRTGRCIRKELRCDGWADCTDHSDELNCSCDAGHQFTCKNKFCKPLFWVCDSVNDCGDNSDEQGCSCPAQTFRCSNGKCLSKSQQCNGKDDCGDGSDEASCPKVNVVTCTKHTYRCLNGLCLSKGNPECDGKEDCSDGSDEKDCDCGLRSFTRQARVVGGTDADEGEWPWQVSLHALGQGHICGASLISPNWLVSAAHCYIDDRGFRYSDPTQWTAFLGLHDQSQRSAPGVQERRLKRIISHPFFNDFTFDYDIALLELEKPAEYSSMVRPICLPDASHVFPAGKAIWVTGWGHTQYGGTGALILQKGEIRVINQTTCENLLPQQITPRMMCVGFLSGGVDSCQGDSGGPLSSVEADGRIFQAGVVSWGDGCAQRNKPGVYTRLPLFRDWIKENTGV
Put plainly: Kinetic assay for the inhibition constant (Ki), matriptase. In kind it is biochemical. How it is done:
as §1, §2, §3

Where [4] appears, read: two-fold dilutions in PBS, 5 × 10^5 CFU/mL, 18 h at 37 °C, OD 550 nm, highest concentration 512 μg/mL.

Converted amounts (≈) assume the structure as drawn. Like-named read-outs stand apart in the source and are kept apart here.

We go through two compounds from PMC9030697, “Engineering and Structural Insights of a Novel BBI-like Protease Inhibitor Livisin from the Frog Skin Secretion” (Toxins, 2022).

As usually defined, the Ki is the equilibrium dissociation constant of an inhibitor or competing ligand from its target.

In the case of `CC(C)C[C@H](NC(=O)[C@@H]1CSSC[C@H](NC(=O)CNC(=O)[C@H](CCCNC(=N)N)NC(=O)[C@H](CC(C)C)NC(=O)[C@H](Cc2ccccc2)NC(=O)CN)C(=O)N[C@@H](Cc2c[nH]c3ccccc23)C(=O)N[C@@H]([C@@H](C)O)C(=O)N[C@@H](CCCNC(=N)N)C(=O)N[C@@H](CO)C(=O)N[C@@H](Cc2ccccc2)C(=O)N2CCC[C@H]2C(=O)N2CCC[C@H]2C(=O)N[C@@H](CCCCN)C(=O)N2CCC[C@H]2C(=O)N1)C(=O)O` [livisin-Arg], the Ki at mesotrypsin (peptide 0.1-100 μM in PBS pH 7.4, substrate Mca-Arg-Pro-Val-Glu-Nval-Trp-Arg-Lys(Dnp)-NH2 20 μM, 37 °C, continuous fluorescence, Morrison equation, three independent experiments, each in duplicate, NI = no inhibition, read-out: Ki Mesotrypsin) is 32.1 µM; at chymotrypsin, 74.7 µM; on human proteasome 20s (peptide 0.1-100 μM in PBS pH 7.4, substrate Suc-Leu-Leu-Val-Tyr-AMC 20 μM, 15 min pre-incubation, 37 °C, fluorescence, Morrison equation, three independent experiments, each in duplicate, NI = no inhibition, read-out: Ki 20s Proteasome), over 100 µM; at bovine trypsin it was 1.02 µM; at human matriptase-1 (human matriptase, peptide 0.1-100 μM in PBS pH 7.4, substrate Boc-Gln-Ala-Arg-AMC 20 μM, 37 °C, continuous fluorescence, Morrison equation, three independent experiments, each in duplicate, NI = no inhibition, read-out: Ki Matriptase) it was 46.9 µM. For the same compound, the “MIC E. coli (NCTC 10418)” value in experiment [1] (NCTC 10418, 18 h) is over 512 µg/mL. Further, the “MIC C. albicans (NCPF 1467)” value in experiment [2] (NCPF 1467, 18 h) is over 512 µg/mL. In addition, the “MIC S. aureus (NCTC 10788)” value in experiment [3] (NCTC 10788, 18 h) is over 512 µg/mL.

For the compound `CC(C)C[C@H](NC(=O)[C@@H]1CSSC[C@H](NC(=O)CNC(=O)[C@H](CCCNC(=N)N)NC(=O)[C@H](CC(C)C)NC(=O)[C@H](Cc2ccccc2)NC(=O)CN)C(=O)N[C@@H](Cc2c[nH]c3ccccc23)C(=O)N[C@@H]([C@@H](C)O)C(=O)N[C@@H](CCCCN)C(=O)N[C@@H](CO)C(=O)N[C@@H](Cc2ccccc2)C(=O)N2CCC[C@H]2C(=O)N2CCC[C@H]2C(=O)N[C@@H](CCCCN)C(=O)N2CCC[C@H]2C(=O)N1)C(N)=O` [livisin-NH2], the Ki at mesotrypsin was 18.6 µM; at chymotrypsin, 144 µM; on human proteasome 20s (read-out: Ki 20s Proteasome, peptide 0.1-100 μM in PBS pH 7.4, substrate Suc-Leu-Leu-Val-Tyr-AMC 20 μM, 15 min pre-incubation, 37 °C, fluorescence, Morrison equation, three independent experiments, each in duplicate, NI = no inhibition) it was over 100 µM; at bovine trypsin (bovine trypsin, peptide 0.1-100 μM in PBS pH 7.4, substrate Z-Gly-Gly-Arg-NHMec 45 μM, 37 °C, continuous fluorescence, Morrison equation, three independent experiments, each in duplicate, NI = no inhibition, read-out: Ki Trypsin), 0.424 µM; at human matriptase-1, 2.36 µM. The “MIC E. coli (NCTC 10418)” value in experiment [1] (setting [4]) was over 512 µg/mL. Moreover, the “MIC C. albicans, given in μM” value in experiment [2] (same MIC as 256 μg/mL, printed in molar unit, 18 h at 37 °C, OD 550 nm) turned out to be 132 µM (≈ 255 µg/mL). The “MIC C. albicans (NCPF 1467)” value in experiment [2] (setting [4]) came out at 256 µg/mL (≈ 132 µM). The “MIC S. aureus (NCTC 10788)” value in experiment [3] (setting [4]) is over 512 µg/mL.
